Measured values published in PubChem BioAssay AID328 (DTP/NCI, 2004).
“And” between values parts separate entries of the source, which are not always exact repeats. Identical values can stand only once. Toxic doses and inconclusive results are not listed. How the source made its calls: active means survival T/C of 150% or more; inactive means T/C below 125% in these data.

Test system: BDF1 mice, P388 leukemia ip, median survival T/C
Assay: NCI In Vivo Anticancer Drug Screen. Data for tumor model P388 Leukemia (intraperitoneal) in B6D2F1 (BDF1) mice
Conditions: endpoint: median survival time, higher = longer survival
In short: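 Reported as T/C, where T is the survival measurement in dosed animals and C the same measurement in vehicle controls.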

[1] = dose: 100.0 mg/kg/injection, schedule: Q01DX009 (ip), vehicle: saline with Tween-80
[2] = dose: 100.0 mg/kg/injection, schedule: Q04DX003 (ip), vehicle: saline with Tween-80
[3] = dose: 200.0 mg/kg/injection, schedule: Q01DX009 (ip), vehicle: saline with Tween-80
[4] = dose: 200.0 mg/kg/injection, schedule: Q04DX003 (ip), vehicle: saline with Tween-80
[5] = dose: 400.0 mg/kg/injection, schedule: Q01DX009 (ip), vehicle: saline with Tween-80
[6] = dose: 100.0 mg/kg/injection, schedule: Q01DX009 (ip), vehicle: other
[7] = dose: 100.0 mg/kg/injection, schedule: Q04DX003 (ip), vehicle: other
[8] = dose: 100.0 mg/kg/injection, schedule: Q04DX003 (ip), vehicle: Klucel (hydroxypropylcellulose) (HPC)
[9] = dose: 200.0 mg/kg/injection, schedule: Q04DX003 (ip), vehicle: Klucel (hydroxypropylcellulose) (HPC)
[10] = dose: 400.0 mg/kg/injection, schedule: Q04DX003 (ip), vehicle: Klucel (hydroxypropylcellulose) (HPC)
[11] = dose: 50.0 mg/kg/injection, schedule: Q01DX009 (ip), vehicle: saline
[12] = dose: 50.0 mg/kg/injection, schedule: Q01DX009 (ip), vehicle: saline with Tween-80
[13] = dose: 100.0 mg/kg/injection, schedule: Q01DX009 (ip), vehicle: saline
[14] = dose: 200.0 mg/kg/injection, schedule: Q01DX009 (ip), vehicle: saline

Measured: T/C

CN(C)c1ccc(/C=C/c2ccnc3ccccc23)cc1
inactive: dose: 5.0 mg/kg/injection, schedule: Q01DX010 (ip), vehicle: saline 95 % of control and 100 % of control | dose: 9.0 mg/kg/injection, schedule: Q01DX010 (ip), vehicle: saline 100 % of control | dose: 10.0 mg/kg/injection, schedule: Q01DX010 (ip), vehicle: saline 95 % of control and 100 % of control | dose: 18.0 mg/kg/injection, schedule: Q01DX010 (ip), vehicle: saline 109 % of control | dose: 20.0 mg/kg/injection, schedule: Q01DX010 (ip), vehicle: saline 90 % of control and 100 % of control | dose: 35.0 mg/kg/injection, schedule: Q01DX010 (ip), vehicle: saline 109 % of control | dose: 40.0 mg/kg/injection, schedule: Q01DX010 (ip), vehicle: saline 100 % of control

OCc1ccccc1F
inactive: [1] 88 % of control | [2] 100 % of control | [3] 103 % of control | [4] 109 % of control | [5] 111 % of control

CCC(C)(OC(C)=O)C(=O)O[C@H]1C(=O)O[C@@H]2C[C@H]3C(C)=CC(=O)[C@@H](O)[C@]3(C)[C@H]3[C@@]4(O)OC[C@]32[C@@H]1[C@@H](C)[C@H]4O (stereo partly drawn)
inactive: dose: 0.25 mg/kg/injection, schedule: Q01DX009 (ip), vehicle: saline 119 % of control | dose: 2.0 mg/kg/injection, schedule: Q01DX009 (ip), vehicle: saline 121 % of control | dose: 5.0 mg/kg/injection, schedule: Q01DX009 (ip), vehicle: saline 123 % of control
active: dose: 1.25 mg/kg/injection, schedule: Q01DX009 (ip), vehicle: saline 157 % of control

CN(C)C(=O)c1ccc(C(C)(C)C)cc1
inactive: dose: 12.5 mg/kg/injection, schedule: Q01DX009 (ip), vehicle: other 104 % of control | dose: 12.5 mg/kg/injection, schedule: Q04DX003 (ip), vehicle: other 106 % of control | dose: 25.0 mg/kg/injection, schedule: Q01DX009 (ip), vehicle: other 103 % of control | dose: 25.0 mg/kg/injection, schedule: Q04DX003 (ip), vehicle: other 121 % of control | dose: 50.0 mg/kg/injection, schedule: Q01DX009 (ip), vehicle: other 113 % of control | dose: 50.0 mg/kg/injection, schedule: Q04DX003 (ip), vehicle: other 97 % of control | [6] 101 % of control | [7] 106 % of control | dose: 200.0 mg/kg/injection, schedule: Q04DX003 (ip), vehicle: other 95 % of control

O=C(C1CC2CCC1C2)C1CC2CCC1C2 (stereo not drawn)
inactive: [6] 95 % of control | [8] 100 % of control | [9] 108 % of control | [10] 104 % of control

CCCCCCCCCC[N+]1([O-])CCCCC1
inactive: dose: 12.5 mg/kg/injection, schedule: Q01DX009 (ip), vehicle: saline 98 % of control | dose: 25.0 mg/kg/injection, schedule: Q01DX009 (ip), vehicle: saline 91 % of control | [11] 94 % of control

CCOc1cc(C=Nc2cccc(C(F)(F)F)c2)ccc1O
inactive: [7] 95 % of control | dose: 400.0 mg/kg/injection, schedule: Q04DX003 (ip), vehicle: other 95 % of control

CN(C)P(=S)(N(C)C)N1CCC1
inactive: [12] 96 % of control | [1] 90 % of control | [3] 109 % of control

COc1ccc(NC(=O)Oc2ccc(-c3ccccc3)cc2Br)cc1
inactive: [8] 91 % of control | [9] 95 % of control | [10] 91 % of control

C/C(=C\Cl)CN(C)C
inactive: dose: 56.25 mg/kg/injection, schedule: Q01DX001 (ip), vehicle: saline 100 % of control | dose: 56.25 mg/kg/injection, schedule: Q04DX003 (ip), vehicle: saline 95 % of control | dose: 112.5 mg/kg/injection, schedule: Q01DX001 (ip), vehicle: saline 86 % of control | dose: 112.5 mg/kg/injection, schedule: Q04DX003 (ip), vehicle: saline 90 % of control | dose: 150.0 mg/kg/injection, schedule: Q01DX009 (ip), vehicle: saline 105 % of control | dose: 225.0 mg/kg/injection, schedule: Q01DX001 (ip), vehicle: saline 100 % of control | dose: 225.0 mg/kg/injection, schedule: Q01DX009 (ip), vehicle: saline 105 % of control

O=S(=O)(O)c1ccc(-c2ccc(S(=O)(=O)O)cc2)cc1 (tested in a mixture with another compound)
active: dose: 21.0 mg/kg/injection, schedule: Q04DX003 (ip), vehicle: saline 200 % of control | dose: 33.0 mg/kg/injection, schedule: Q04DX003 (ip), vehicle: saline 270 % of control | dose: 50.0 mg/kg/injection, schedule: Q04DX003 (ip), vehicle: saline 300 % of control | dose: 110.0 mg/kg/injection, schedule: Q04DX003 (ip), vehicle: saline 300 % of control

Cc1cc(C)cc(NC(=O)c2ccccc2N)c1
inactive: [1] 95 % of control | [2] 109 % of control | [3] 95 % of control | [4] 90 % of control | [5] 104 % of control | dose: 400.0 mg/kg/injection, schedule: Q04DX003 (ip), vehicle: saline with Tween-80 100 % of control

Cc1cccc(C(=O)Cc2cccc(C#N)c2)c1
inactive: [12] 113 % of control | [1] 99 % of control | [3] 96 % of control

Nc1nc(Cl)nc2c1ncn2C1OC(CO)C(O)C1O (stereo not drawn)
inactive: dose: 12.5 mg/kg/injection, schedule: Q01DX010 (ip), vehicle: carboxymethylcellulose (CMC) 123 % of control
active: dose: 50.0 mg/kg/injection, schedule: Q01DX010 (ip), vehicle: carboxymethylcellulose (CMC) 161 % of control | dose: 100.0 mg/kg/injection, schedule: Q01DX010 (ip), vehicle: carboxymethylcellulose (CMC) 238 % of control | dose: 112.5 mg/kg/injection, schedule: Q01DX009 (ip), vehicle: saline 159 % of control and 191 % of control | dose: 168.75 mg/kg/injection, schedule: Q01DX009 (ip), vehicle: saline 177 % of control

Cc1ccc(-n2nnc3ccccc3c2=O)cc1C
inactive: [13] 109 % of control | dose: 100.0 mg/kg/injection, schedule: Q04DX003 (ip), vehicle: saline 100 % of control | [14] 90 % of control | dose: 200.0 mg/kg/injection, schedule: Q04DX003 (ip), vehicle: saline 104 % of control | dose: 400.0 mg/kg/injection, schedule: Q01DX009 (ip), vehicle: saline 113 % of control | dose: 400.0 mg/kg/injection, schedule: Q04DX003 (ip), vehicle: saline 100 % of control

O=C1/C(=C/c2ccco2)CC2CCCCC12 (stereo not drawn)
inactive: dose: 50.0 mg/kg/injection, schedule: Q01DX009 (ip), vehicle: Klucel (hydroxypropylcellulose) (HPC) 104 % of control | dose: 75.0 mg/kg/injection, schedule: Q01DX001 (ip), vehicle: other 100 % of control | dose: 75.0 mg/kg/injection, schedule: Q01DX009 (ip), vehicle: Klucel (hydroxypropylcellulose) (HPC) 113 % of control | dose: 150.0 mg/kg/injection, schedule: Q01DX001 (ip), vehicle: other 104 % of control | dose: 150.0 mg/kg/injection, schedule: Q01DX009 (ip), vehicle: Klucel (hydroxypropylcellulose) (HPC) 100 % of control

COc1cc2c(cc1OC)-c1c(C)c3ccc(OC)c(NCc4ccccc4)c3c[n+]1CC2
inactive: dose: 1.56 mg/kg/injection, schedule: Q04DX003 (ip), vehicle: other 107 % of control | dose: 3.13 mg/kg/injection, schedule: Q04DX003 (ip), vehicle: other 100 % of control | dose: 6.25 mg/kg/injection, schedule: Q04DX003 (ip), vehicle: other 90 % of control

CC1(C)C2CC34CCCN3C(=O)C2(CC12Nc1ccccc1C2=O)NC4=O (stereo not drawn)
inactive: [11] 102 % of control | [13] 109 % of control | [14] 113 % of control

Oc1ccc2ccccc2c1/C=N\Sc1ccc(Br)cc1
inactive: dose: 25.0 mg/kg/injection, schedule: Q04DX003 (ip), vehicle: saline with Tween-80 103 % of control | dose: 50.0 mg/kg/injection, schedule: Q04DX003 (ip), vehicle: saline with Tween-80 100 % of control | [2] 112 % of control

c1ccc2cc(OCC3CO3)c(OCC3CO3)cc2c1 (stereo not drawn)
active: dose: 30.0 mg/kg/injection, schedule: Q01DX005 (ip), vehicle: saline with Tween-80 161 % of control | dose: 60.0 mg/kg/injection, schedule: Q01DX005 (ip), vehicle: saline with Tween-80 157 % of control | dose: 120.0 mg/kg/injection, schedule: Q01DX005 (ip), vehicle: saline with Tween-80 176 % of control
